This assay addresses T1, glucocorticoid receptor (Homo sapiens, UniProt P04150).
T1 construct: expressed in transfected cells
T1 sequence (P04150 524-758 limits assumed): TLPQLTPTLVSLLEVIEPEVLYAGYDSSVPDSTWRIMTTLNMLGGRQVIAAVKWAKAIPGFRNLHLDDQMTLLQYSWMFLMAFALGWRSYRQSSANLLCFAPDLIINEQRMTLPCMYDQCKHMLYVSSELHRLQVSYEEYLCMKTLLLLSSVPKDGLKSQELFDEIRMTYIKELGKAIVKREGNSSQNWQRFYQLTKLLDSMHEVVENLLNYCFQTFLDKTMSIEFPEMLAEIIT
Kind of assay: Agonistic mode of action on the glucocorticoid receptor (CHO-Gal4/GR luciferase reporter cell line). The format is cell-based. The settings on record: range class observed in the agonistic assay or the antagonistic assay (CHO-Gal4/GR reporter cells); table does not say which mode applies per example. An outline of the steps:
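CHO cells stably carrying GAL4 DBD–GR ligand-binding-domain fusion and GAL4-UAS firefly luciferase reporter, 5000 cells/well grown 24 h, then compounds added in Opti-MEM at 8 half-log concentrations from 10 μM to 0.003 μM (0.5% DMSO), quadruplicates. Agonist-induced luminescence read on FLIPR Tetra; EC50 calculated.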
(In a reporter assay the amount or activity of a reporter protein is the signal.)

The compound `CCc1c(-c2cc(F)cc3c2ccn3S(C)(=O)=O)c(F)cc2c1-n1c(C)nnc1C(C)(C)N2` [Example 46, 9-Ethyl-7-fluoro-8-(6-fluoro-1-methylsulfonyl-1H-indol-4-yl)-1,4,4-trimethyl-5H-[1,2,4]triazolo[4,3-a]quinoxaline] showed an IC50 or EC50 (agonist or antagonist mode not specified) of under 100 nM. `Cc1nnc2n1-c1c(cc(F)c(-c3ccc(F)c4[nH]ccc34)c1C(F)F)NC2(C)C` [Example 496, 9-(Difluoro-methyl)-7-fluoro-8-(7-fluoro-1H-indol-4-yl)-1,4,4-trimethyl-5H-[1,2,4]triazolo[4,3-a] quinoxaline] registered an IC50 or EC50 (agonist or antagonist mode not specified) of under 100 nM.

On to `Cc1nnc2n1-c1c(cc(F)c(-c3cccc4c3ccn4S(=O)(=O)C(C)C)c1C(F)F)NC2(C)C` [Example 400, 9-(Difluoro-methyl)-7-fluoro-8-[1-(isopropylsulfonyl)-1H-indol-4-yl]-1,4,4-trimethyl-5H-[1,2,4]triazolo [4,3-a]quinoxaline], for which the IC50 or EC50 (agonist or antagonist mode not specified) lay within 1000 to 15000 nM. For `CCS(=O)(=O)n1ccc2c(-c3c(F)cc4c(c3C)-n3c(C)nnc3C(C)(C)N4)cccc21` [Example 372, 8-[1-(Ethylsulfonyl)-1H-indol-4-yl]-7-fluoro-1,4,4,9-tetramethyl-5H-[1,2,4]triazolo[4,3-a]quinoxaline] the value was under 100 nM; for `Cc1nnc2n1-c1c(cc(F)c(-c3cc(F)cc4c3ccn4S(C)(=O)=O)c1F)NC2(C)C` [Example 3, 7,9-difluoro-8-(6-fluoro-1-(methylsulfonyl)-1H-indol-4-yl)-1,4,4-trimethyl-4,5-dihydro-[1,2,4]triazolo[4,3-a]quinoxaline], under 100 nM; for `COc1cc2c(c(C(F)(F)F)c1-c1cc(F)cc3c1cnn3S(C)(=O)=O)-n1c(C)nnc1C(C)(C)N2` [Example 376, 8-(6-Fluoro-1-methylsulfonyl-1H-indazol-4-yl)-7-methoxy-1,4,4-trimethyl-9-(trifluoromethyl)-5H-[1,2,4]triazolo[4,3-a]quinoxaline], 1000 to 15000 nM. In the case of `Cc1c(-c2cc(F)cc3c(C)c[nH]c23)c(F)cc2c1-n1c(C)nnc1C(C)(C)N2` [Example 31, 7-fluoro-8-(5-fluoro-3-methyl-1H-indol-7-yl)-1,4,4,9-tetramethyl-4,5-dihydro-[1,2,4]triazolo[4,3-a]quinoxaline], the IC50 or EC50 (agonist or antagonist mode not specified) was under 100 nM. In turn, `Cc1nnc2n1-c1c(ccc(-c3cccc4c3ccn4S(C)(=O)=O)c1C(F)F)NC2(C)C` [Example 528, 9-(Difluoro-methyl)-1,4,4-trimethyl-8-(1-methylsulfonyl-1H-indol-4-yl)-5H-[1,2,4]triazolo [4,3-a]quinoxaline] came in with an IC50 or EC50 (agonist or antagonist mode not specified) of 100 to 1000 nM. For `CCc1nnc2n1-c1c(cc(F)c(-c3cccc4c3cnn4C3CC3)c1C)NC2(C)C` [Example 242, 8-(1-Cyclopropyl-1H-indazol-4-yl)-1-ethyl-7-fluoro-4,4,9-trimethyl-5H-[1,2,4]triazolo[4,3-a]quinoxaline] the value was 1000 to 15000 nM; for `Cc1nnc2n1-c1c(cc(F)c(-c3cccc4c3ccn4CCN(C)C)c1F)NC2(C)C` [Example 383, [2-[4-(7,9-Difluoro-1,4,4-trimethyl-5H-[1,2,4]triazolo[4,3-a]quinoxalin-8-yl)-1H-indol-1-yl]-ethyl]-dimethyl-amine], 1000 to 15000 nM; for `Cc1c(-c2cccc3c2ccn3C2CC2)c(Cl)cc2c1-n1c(C)nnc1C(C)(C)N2` [Example 533, 7-Chloro-8-(1-cyclopropyl-1H-indol-4-yl)-1,4,4,9-tetramethyl-5H-[1,2,4]triazolo[4,3-a] quinoxaline], under 100 nM. Under `Cc1nnc2n1-c1c(cc(OC(F)F)c(-c3cccc4[nH]ccc34)c1F)NC2(C)C` [Example 297, 7-(Difluoro-methoxy)-9-fluoro-8-(1H-indol-4-yl)-1,4,4-trimethyl-5H-[1,2,4]triazolo[4,3-a]quinoxaline] stands 1000 to 15000 nM.
